31 compounds from patent publication US20130303532A1, “IMIDAZOPYRAZINES FOR USE AS MPS-1 AND TKK INHIBITORS IN THE TREATMENT HYPERPROLIFERATIVE DISORDERS” (BAYER INTELLECTUAL PROPERTY GmbH, priority 2010, published 2013) can be followed below.

The target in one assay is T1, human kinase Mps-1 (Homo sapiens, UniProt P33981).
T1 construct: N-terminally GST-tagged human full length recombinant Mps-1 kinase; GST (N); purchased Invitrogen, Karslruhe, Germany PV4071
T1 sequence (P33981 1-857): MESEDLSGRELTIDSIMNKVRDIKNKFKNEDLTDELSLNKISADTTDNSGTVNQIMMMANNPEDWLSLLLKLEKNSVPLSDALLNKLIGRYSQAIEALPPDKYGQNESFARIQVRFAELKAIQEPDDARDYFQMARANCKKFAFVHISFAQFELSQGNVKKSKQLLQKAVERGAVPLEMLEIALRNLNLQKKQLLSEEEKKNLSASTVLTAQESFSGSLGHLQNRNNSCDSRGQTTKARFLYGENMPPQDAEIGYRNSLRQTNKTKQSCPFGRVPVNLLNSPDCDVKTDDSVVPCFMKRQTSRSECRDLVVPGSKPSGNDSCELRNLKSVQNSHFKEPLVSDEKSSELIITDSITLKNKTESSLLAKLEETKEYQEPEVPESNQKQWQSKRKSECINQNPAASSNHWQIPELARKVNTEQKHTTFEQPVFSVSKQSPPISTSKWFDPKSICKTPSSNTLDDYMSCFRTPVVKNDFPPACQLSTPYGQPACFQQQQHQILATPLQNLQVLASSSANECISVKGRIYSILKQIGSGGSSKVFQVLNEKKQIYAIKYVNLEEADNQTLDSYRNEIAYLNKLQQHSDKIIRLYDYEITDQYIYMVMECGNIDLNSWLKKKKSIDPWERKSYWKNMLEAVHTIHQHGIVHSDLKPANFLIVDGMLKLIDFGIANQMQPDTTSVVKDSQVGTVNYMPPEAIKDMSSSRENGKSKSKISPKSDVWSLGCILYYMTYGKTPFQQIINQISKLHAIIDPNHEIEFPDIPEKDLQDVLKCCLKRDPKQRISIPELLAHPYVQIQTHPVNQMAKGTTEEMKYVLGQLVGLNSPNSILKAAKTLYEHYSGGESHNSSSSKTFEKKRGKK
Briefly: Mps-1 kinase assay (TR-FRET). The class given is biochemical. The conditions noted are these: Mps1 IC50 [nM], N-terminally GST-tagged human full length recombinant Mps-1; 10 μM ATP; 1 μM biotinylated peptide substrate; 60 min at 22° C. For orientation: TR-FRET usually uses a lanthanide donor and a delayed reading to cut background.
As for `Cc1cc(-c2cnc3c(NCCCN4CCOCC4)nccn23)ccc1C(=O)NC1CC1` [Example 7-92, N-cyclopropyl-2-methyl-4-(8-{[3-(morpholin-4-yl)propyl]amino}imi-dazo[1,2-a]pyrazin-3-yl)benzamide], the IC50 was found to be 389 nM.

Consider `Cc1cc(-c2cnc3c(NCc4c(F)cccc4F)nccn23)ccc1C(=O)NC1CC1` [Example 7-127, N-cyclopropyl-4-{8-[(2,6-difluorobenzyl)amino]imi-dazo[1,2-a]pyrazin-3-yl}-2-methylbenzamide], for which the IC50 is 47.1 nM.

With `CC(C)(O)CNc1nccn2c(-c3ccc(C(=O)NC4CC4)c(Cl)c3)cnc12` [Example 7-64, 2-chloro-N-cyclopropyl-4-{8-[(2-hydroxy-2-methylpropyl)amino]imi-dazo[1,2-a]pyrazin-3-yl}benzamide], the half-inhibitory concentration (IC50) amounted to 538 nM.

Consider `O=C(NC1CC1)c1ccc(-c2cnc3c(NCc4ccn[nH]4)nccn23)cc1` [Example 4-4, N-cyclopropyl-4-{8-[(1H-pyrazol-5-ylmethyl)amino]imi-dazo[1,2-a]pyrazin-3-yl}benzamide], for which the IC50 amounted to 69.8 nM.

In the case of `O=C(NC1CC1)c1ccc(-c2cnc3c(NCc4cccs4)nccn23)cc1O` [Example 7-76, N-cyclopropyl-2-hydroxy-4-{8-[(thiophen-2-ylmethyl)amino]imi-dazo[1,2-a]pyrazin-3-yl}benzamide], the IC50 turned out to be 35.8 nM.

For the compound `O=C(NC1CC1)c1ccc(-c2cnc3c(NCc4ccco4)nccn23)cc1Cl` [Example 7-50, 2-chloro-N-cyclopropyl-4-{8-[(furan-2-ylmethyl)amino]imi-dazo[1,2-a]pyrazin-3-yl}benzamide], the IC50 came out at 209 nM.

Consider `Cc1cc(-c2cnc3c(NCC4CCCCO4)nccn23)ccc1C(=O)NC1CC1` (stereo not shown) [Example 7-124, N-cyclopropyl-2-methyl-4-{8-[(tetrahydro-2H-pyran-2-ylmethyl)amino]imi-dazo[1,2-a]pyrazin-3-yl}benzamide], for which the IC50 was 80.8 nM.

On to `CC(O)CNc1nccn2c(-c3ccc(C(=O)NC4CC4)c(O)c3)cnc12` (stereo not shown) [Example 7-84, N-cyclopropyl-2-hydroxy-4-{8-[(2-hydroxypropyl)amino]imi-dazo[1,2-a]pyrazin-3-yl}benzamide], for which the IC50 turned out to be 96.9 nM.

`Cc1cc(-c2cnc3c(NCc4ccccc4O)nccn23)ccc1C(=O)NC1CC1` [Example 5-2, N-cyclopropyl-4-{8-[(2-hydroxybenzyl)amino]imi-dazo[1,2-a]pyrazin-3-yl}-2-methylbenzamide]: the IC50 is 24.4 nM.

As to `Cc1cc(-c2cnc3c(NCC(C)(C)O)nccn23)ccc1C(=O)NC1CC1` [Example 7-122, N-cyclopropyl-4-{8-[(2-hydroxy-2-methylpropyl)amino]imi-dazo[1,2-a]pyrazin-3-yl}-2-methylbenzamide], the IC50 is 171 nM.

With `O=C(NC1CC1)c1ccc(-c2cnc3c(NCc4ccc(F)cc4)nccn23)cc1` [Example 7-31, N-cyclopropyl-4-{8-[(4-fluorobenzyl)amino]imi-dazo[1,2-a]pyrazin-3-yl}benzamide], the IC50 was determined as 17.4 nM.

As to `COc1cc(CNc2nccn3c(-c4ccc(C(=O)NC5CC5)cc4)cnc23)cc(OC)c1OC` [Example 7-13, N-cyclopropyl-4-{8-[(3,4,5-trimethoxybenzyl)amino]imi-dazo[1,2-a]pyrazin-3-yl}benzamide], the IC50 turned out to be 429 nM.

Take `O=C(NC1CC1)c1ccc(-c2cnc3c(NCc4ccccc4F)nccn23)cc1Cl` [Example 7-37, 2-chloro-N-cyclopropyl-4-{8-[(2-fluorobenzyl)amino]imi-dazo[1,2-a]pyrazin-3-yl}benzamide]: the IC50 was determined as 93.8 nM.

As to `Cc1cc(-c2cnc3c(NCc4ccccc4F)nccn23)ccc1C(=O)NC1CC1` [Example 7-97, N-cyclopropyl-4-{8-[(2-fluorobenzyl)amino]imi-dazo[1,2-a]pyrazin-3-yl}-2-methylbenzamide], the IC50 stood at 31.6 nM.

As to `Cn1cc(CNc2nccn3c(-c4ccc(C(=O)NC5CC5)c(O)c4)cnc23)cn1` [Example 7-85, N-cyclopropyl-2-hydroxy-4-(8-{[(1-methyl-1H-pyrazol-4-yl)methyl]amino}imi-dazo[1,2-a]pyrazin-3-yl)benzamide], the IC50 is 105 nM.

As for `O=C(NC1CC1)c1ccc(-c2cnc3c(NCCC(F)(F)F)nccn23)cc1O` [Example 7-83, N-cyclopropyl-2-hydroxy-4-{8-[(3,3,3-trifluoropropyl)amino]imi-dazo[1,2-a]pyrazin-3-yl}benzamide], the 50% inhibitory concentration (IC50) was 22.3 nM.

Turning to `Cn1nccc1CNc1nccn2c(-c3ccc(C(=O)NC4CC4)c(Cl)c3)cnc12` [Example 7-61, 2-chloro-N-cyclopropyl-4-(8-{[(1-methyl-1H-pyrazol-5-yl)methyl]amino}imi-dazo[1,2-a]pyrazin-3-yl)benzamide], the IC50 was determined as 269 nM.

Regarding `O=C(NC1CC1)c1ccc(-c2cnc3c(NCCCc4ccccc4)nccn23)cc1` [Example 7-24, N-cyclopropyl-4-{8-[(3-phenylpropyl)amino]imi-dazo[1,2-a]pyrazin-3-yl}benzamide], the IC50 amounted to 90.1 nM.

Turning to `O=C(NC1CC1)c1ccc(-c2cnc3c(NCCC(F)(F)F)nccn23)cc1Cl` [Example 7-56, 2-chloro-N-cyclopropyl-4-{8-[(3,3,3-trifluoropropyl)amino]imi-dazo[1,2-a]pyrazin-3-yl}benzamide], the IC50 came to 43 nM.

In the case of `Cc1cc(-c2cnc3c(NCc4ccccc4Cl)nccn23)ccc1C(=O)NC1CC1` [Example 5-4, 4-{8-[(2-chlorobenzyl)amino]imi-dazo[1,2-a]pyrazin-3-yl}-N-cyclopropyl-2-methylbenzamide], the half-inhibitory concentration (IC50) is 18.8 nM.

For the compound `Cc1cc(-c2cnc3c(NC[C@@H](O)CO)nccn23)ccc1C(=O)NC1CC1` [Example 7-125, N-cyclopropyl-4-{8-[(2,3-dihydroxypropyl)amino]imi-dazo[1,2-a]pyrazin-3-yl}-2-methylbenzamide], the IC50 came out at 361 nM.

Turning to `CC(C)CNc1nccn2c(-c3ccc(C(=O)NC4CC4)c(O)c3)cnc12` [Example 7-80, N-cyclopropyl-2-hydroxy-4-{8-[(2-methylpropyl)amino]imi-dazo[1,2-a]pyrazin-3-yl}benzamide], the IC50 was 15.5 nM.

The assay is the same for the next values; noted with them: N-terminally GST-tagged human full length recombinant Mps-1; 10 μM ATP; 1 μM biotinylated peptide substrate; 60 min at 22° C.; read-out: Mps1 IC50.
On to `CCCCNc1nccn2c(-c3ccc(C(=O)NC4CC4)c(C)c3)cnc12` [Example 7-105, 4-[8-(butylamino)imidazo[1,2-a]pyrazin-3-yl]-N-cyclopropyl-2-methylbenzamide], for which the IC50 worked out at 18.5 nM.

Take `O=C(NC1CC1)c1ccc(-c2cnc3c(NCc4ccc5c(c4)OCO5)nccn23)cc1` [Example 7-18, 4-{8-[(1,3-benzodioxol-5-ylmethyl)amino]imidazo[1,2-a]pyrazin-3-yl}-N-cyclopropylbenzamide]: the IC50 is 28.4 nM.

On to `COC(=O)CCCNc1nccn2c(-c3ccc(C(=O)NC4CC4)cc3)cnc12` [Example 4-5, methyl 4-({3-[4-(cyclopropylcarbamoyl)phen-yl]imidazo[1,2-a]pyrazin-8-yl}amino)butanoate], for which the IC50 is 103 nM.

As for `CS(=O)(=O)CCCNc1nccn2c(-c3ccc(C(=O)NC4CC4)c(Cl)c3)cnc12` [Example 7-66, 2-chloro-N-cyclopropyl-4-(8-{[3-(methylsulfonyl)propyl]ami-no}imidazo[1,2-a]pyrazin-3-yl)benzamide], the IC50 was determined as 519 nM.

As for `O=C(NC1CC1)c1ccc(-c2cnc3c(NCCCN4CCCC4=O)nccn23)cc1Cl` [Example 7-35, 2-chloro-N-cyclopropyl-4-(8-{[3-(2-oxopyrrolidin-1-yl)propyl]amino}imidazo[1,2-a]pyrazin-3-yl)benzamide], the IC50 turned out to be 1970 nM.

Turning to `Cc1cc(-c2cnc3c(NCCCNC(=O)OC(C)(C)C)nccn23)ccc1C(=O)NC1CC1` [Example 7-117, tert-butyl [3-({3-[4-(cyclopropylcarbamoyl)-3-methylphenyl]imidazo[1,2-a]pyrazin-8-yl}amino)propyl]carbamate], the IC50 was 196 nM.

For the compound `CS(=O)(=O)CCNc1nccn2c(-c3ccc(C(=O)NC4CC4)cc3)cnc12` [Example 4-1, N-cyclopropyl-4-(8-{[2-(methylsulfonyl)ethyl]amino}imidazo[1,2-a]pyrazin-3-yl)benzamide], the IC50 stood at 17.2 nM.

As to `O=C(NC1CC1)c1ccc(-c2cnc3c(NCC4CC4)nccn23)cc1Cl` [Example 7-46, 2-chloro-N-cyclopropyl-4-{8-[(cyclopropylmethyl)ami-no]imidazo[1,2-a]pyrazin-3-yl}benzamide], the IC50 is 73.1 nM.

Turning to `NS(=O)(=O)c1ccc(CCNc2nccn3c(-c4ccc(C(=O)NC5CC5)cc4)cnc23)cc1` [Example 7-27, N-cyclopropyl-4-(8-{[2-(4-sulfamoylphenyl)ethyl]ami-no}imidazo[1,2-a]pyrazin-3-yl)benzamide], the IC50 was 97.6 nM.

By IC50 is commonly meant the point on the concentration scale where inhibition reaches its midpoint.
